How the values were obtained:
[1] = system: Male Wistar rats; assay: Determination of the diuresis (urine volume over 6 hours after oral dosing); assay type: in vivo, rat
Procedure: Procedures were approved by the Institutional Animal Care and Use Committee of NitroMed, Inc. Male Wistar rats (180-200 g) were purchased from Charles River Laboratories (Kingston, N.Y. or Raleigh, N.C.) and allowed to acclimate in the facility for a period of at least 72 h. Rats were randomly housed 2-3 per cage in a light-controlled room with a 12 hour light/dark cycle and allowed ad libitum access to food and water.
Prior to the experiment, each rat was placed in a metabolic cage and allowed to acclimate for a period of 24-48 hours with food and water ad libitum. During this acclimation period, rats received mash food instead of pellet food to prevent contamination of the urine samples. All rats were fasted for 18 hours prior to experimentation. In addition, water was removed 90 minutes prior to oral dosing with test compound or vehicle.
The test compounds were prepared immediately prior to dosing in 0.5% Methocel (F4M Premium Hydroxypropyl Methylcellulose, lot # PF12012N12; Dow Chemical Company, USA) and homogenized with a glass/Teflon pestle motorized homogenizer. Gently vortexed test compounds were administered intragastrically (p.o.; 30 mg/kg or 3 mg/kg) at a dose volume of 3 ml per rat using an 18 gauge gavage needle. Urine volume (ml) was monitored and urine was collected for subsequent electrolyte analysis over a 6 hours period. […] Data are expressed as mean ±SEM; n=6 or 7.

[2] = p.o. 30 mg/kg in 0.5% Methocel, male Wistar rats, 6 hours, mean ± SEM, n=6 or 7

Structure (SMILES)	melting point	Urine collected in 6 hours (mL) (30 mg/kg) [1, 2]	Urine collected in 6 hours (mL) (30 mg/kg) ([1]; rat, in vivo, po)
NS(=O)(=O)c1cc2c(cc1C(F)(F)F)NC(CCCCCO[N+](=O)[O-])NS2(=O)=O (centres unmarked) [Example 2, 2H-1,2,4-Benzothiadiazine-7-sulfonamide, 3,4-dihydro-3-[5-(nitrooxy)pentyl]-6-(trifluoromethyl)-, 1,1-dioxide]	171 to 189 °C	5.7 ± 0.7	
NS(=O)(=O)c1cc2c(cc1C(F)(F)F)NC(CCCO[N+](=O)[O-])NS2(=O)=O (centres unmarked) [Example 3d, 2H-1,2,4-Benzothiadiazine-7-sulfonamide, 3,4-dihydro-3-[3-(nitrooxy)propyl]-6-(trifluoromethyl)-, 1,1-dioxide]	165 °C (dec.)	5.3 ± 0.8	
NS(=O)(=O)c1cc2c(cc1Cl)N=C(NC(=O)CCCCO[N+](=O)[O-])NS2(=O)=O [Example 4c, Pentanamide, N-[7-(aminosulfonyl)-6-chloro-1,1-dioxido-2H-1,2,4-benzothiadiazin-3-yl]-5-(nitrooxy)-]	222 to 225 °C	3.8 ± 0.7	
NS(=O)(=O)c1cc2c(cc1Cl)NC(CCC(CO[N+](=O)[O-])O[N+](=O)[O-])NS2(=O)=O (centres unmarked) [Example 6b, 2H-1,2,4-Benzothiadiazine-7-sulfonamide, 3-[3,4-bis(nitrooxy)butyl]-6-chloro-3,4-dihydro-, 1,1-dioxide]	153 to 155 °C		6.8 ± 0.5
NS(=O)(=O)c1cc2c(cc1C(F)(F)F)NC(CCC(CO[N+](=O)[O-])O[N+](=O)[O-])NS2(=O)=O (centres unmarked) [Example 7, 2H-1,2,4-benzothiadiazine-7-sulfonamide, 3-[3,4-bis(nitrooxy)butyl]-3,4-dihydro-6-(trifluoromethyl)-, 1,1-dioxide]	157 to 160 °C (dec.)		5.7 ± 0.4
NS(=O)(=O)c1cc2c(cc1Cl)NC(CCCO[N+](=O)[O-])NS2(=O)=O (centres unmarked) [Example 8, 2H-1,2,4-Benzothiadiazine-7-sulfonamide, 6-chloro-3,4-dihydro-3-[3-(nitrooxy)propyl]-, 1,1-dioxide]	178 to 181 °C	6.2 ± 0.7	
Cc1c(C2Nc3cc(Cl)c(S(N)(=O)=O)cc3S(=O)(=O)N2)no[n+]1[O-] (centres unmarked) [Example 9b, 2H-1,2,4-Benzothiadiazine-7-sulfonamide, 6-chloro-3,4-dihydro-3-(4-methyl-5-oxido-1,2,5-oxadiazol-3-yl)-, 1,1-dioxide]	242 to 243 °C (dec.)	6.7 ± 0.8	
NS(=O)(=O)c1cc2c(cc1Cl)NC(CCCC(=O)NC[C@H](CO[N+](=O)[O-])O[N+](=O)[O-])=NS2(=O)=O [Example 11, 4H-1,2,4-Benzothiadiazine-3-butanamide, 7-(aminosulfonyl)-N-[(2R)-2,3-bis(nitrooxy)propyl]-6-chloro-, 1,1-dioxide]	> 220 °C		3.7 ± 0.3
NS(=O)(=O)c1cc2c(cc1Cl)NC(CCC(=O)NCCOCCO[N+](=O)[O-])=NS2(=O)=O [Example 13, 4H-1,2,4-Benzothiadiazine-3-propanamide, 7-(aminosulfonyl)-6-chloro-N-[2-[2-(nitrooxy)ethoxy]ethyl]-, 1,1-dioxide]	175 to 178 °C	2.2 ± 0.5	
NS(=O)(=O)c1cc2c(cc1Cl)NC(CCCC(=O)NCCO[N+](=O)[O-])=NS2(=O)=O [Example 14, 4H-1,2,4-Benzothiadiazine-3-butanamide, 7-(aminosulfonyl)-6-chloro-N-[2-(nitrooxy)ethyl]-, 1,1-dioxide]	168 to 170 °C	4.0 ± 0.4	
CC(CO[N+](=O)[O-])(CO[N+](=O)[O-])C(=O)N1CCC2(CC1)Nc1cc(C(F)(F)F)c(S(N)(=O)=O)cc1S(=O)(=O)N2 [Example 16c, Spiro[2H-1,2,4-benzothiadiazine-3(4H), 4′-piperidine]-7-sulfonamide, 1′-[2-methyl-3-(nitrooxy)-2-[(nitrooxy)methyl]-1-oxopropyl]-6-(trifluoromethyl)-, 1,1-dioxide]	> 140 °C (dec.)		4.3 ± 0.3
NS(=O)(=O)c1cc2c(cc1Cl)NC1(CCN(C(=O)CCCCO[N+](=O)[O-])CC1)NS2(=O)=O [Example 18b, Spiro[2H-1,2,4-benzothiadiazine-3(4H), 4′-piperidine]-7-sulfonamide, 6-chloro-1′-[5-(nitrooxy)-1-oxopentyl]-, 1,1-dioxide]	155 °C (dec.)		
CC(C)(CO[N+](=O)[O-])C(=O)N1CCC2(CC1)Nc1cc(C(F)(F)F)c(S(N)(=O)=O)cc1S(=O)(=O)N2 [Example 19b, Spiro[2H-1,2,4-benzothiadiazine-3(4H), 4′-piperidine]-7-sulfonamide, 1′-[2,2-dimethyl-3-(nitrooxy)-1-oxopropyl]-6-(trifluoromethyl)-, 1,1-dioxide]	152 to 156 °C (dec.)	2.5 ± 0.4	
NS(=O)(=O)c1cc2c(cc1Cl)NC(CCCCCO[N+](=O)[O-])=NS2(=O)=O [Example 20c, 4H-1,2,4-Benzothiadiazine-7-sulfonamide, 6-chloro-3-[5-(nitrooxy)pentyl]-, 1,1-dioxide]	170 to 172 °C	3.0 ± 0.9	
NS(=O)(=O)c1cc2c(cc1Cl)NC(CCCC(=O)NC[C@@H](CO[N+](=O)[O-])O[N+](=O)[O-])=NS2(=O)=O [Example 21b, 4H-1,2,4-Benzothiadiazine-3-butanamide, 7-(aminosulfonyl)-N-[(2S)-2,3-bis(nitrooxy)propyl]-6-chloro-, 1,1-dioxide]	140 °C (dec.)		2.7 ± 0.3
CC(CO[N+](=O)[O-])(CO[N+](=O)[O-])C(=O)N1CCC2(CC1)Nc1cc(Cl)c(S(N)(=O)=O)cc1S(=O)(=O)N2 [Example 23, Spiro[2H-1,2,4-benzothiadiazine-3(4H), 4′-piperidine]-7-sulfonamide, 6-chloro-1′-[2-methyl-3-(nitrooxy)-2-[(nitrooxy)methyl]-1-oxopropyl]-, 1,1-dioxide]	142 to 145 °C		1.7 ± 0.6
NS(=O)(=O)c1cc2c(cc1C(F)(F)F)NC(CCCCCO)NS2(=O)=O (centres unmarked) [Example 25b, 2H-1,2,4-Benzothiadiazine-7-sulfonamide, 3,4-dihydro-3-(5-hydroxypentyl)-6-(trifluoromethyl)-, 1,1-dioxide]	97 °C		
NS(=O)(=O)c1cc2c(cc1Cl)NC(Cc1ccc(CO[N+](=O)[O-])cc1)=NS2(=O)=O [Example 29d, 4H-1,2,4-Benzothiadiazine-7-sulfonamide, 6-chloro-3-[[4-[(nitrooxy)methyl]phenyl]methyl]-, 1,1-dioxide]	> 260 °C		
NS(=O)(=O)c1cc2c(cc1Cl)NCN(CCCO[N+](=O)[O-])S2(=O)=O [Example 35b, 2H-1,2,4-Benzothiadiazine-7-sulfonamide, 6-chloro-3,4-dihydro-2-[3-(nitrooxy)propyl]-, 1,1-dioxide]	148 to 151 °C (dec.)		
NS(=O)(=O)c1cc2c(cc1Cl)NCN(CCCCCO)S2(=O)=O [Example 60, 2H-1,2,4-Benzothiadiazine-7-sulfonamide, 6-chloro-3,4-dihydro-2-(5-hydroxypentyl)-, 1,1-dioxide]	177 to 179 °C		
NS(=O)(=O)c1cc2c(cc1C(F)(F)F)NC(CCCCO[N+](=O)[O-])NS2(=O)=O (centres unmarked) [Example 61b, 2H-1,2,4-Benzothiadiazine-7-sulfonamide, 3,4-dihydro-3-[4-(nitrooxy)butyl]-6-(trifluoromethyl)-, 1,1-dioxide]	171 to 177 °C		
NS(=O)(=O)c1cc2c(cc1Cl)NCN(CCCCCCO)S2(=O)=O [Example 66, 2H-1,2,4-Benzothiadiazine-7-sulfonamide, 6-chloro-3,4-dihydro-2-(6-hydroxyhexyl)-, 1,1-dioxide]	176 to 179 °C		
NS(=O)(=O)c1cc2c(cc1Cl)NCN(Cc1cc(CO[N+](=O)[O-])cc(OCCCCBr)c1)S2(=O)=O [Example 68d, 2H-1,2,4-Benzothiadiazine-7-sulfonamide, 2-[[3-(4-bromobutoxy)-5[(nitrooxy)methyl]phenyl]methyl]-6-chloro-3,4-dihydro-, 1,1-dioxide]	80 °C		
NS(=O)(=O)c1cc2c(cc1Cl)NC(CCO[N+](=O)[O-])NS2(=O)=O (centres unmarked) [Example 74b, 2H-1,2,4-Benzothiadiazine-7-sulfonamide, 6-chloro-3,4-dihydro-3-[2-(nitrooxy)ethyl]-, 1,1-dioxide]	113 to 117 °C		
NS(=O)(=O)c1cc2c(cc1Cl)NC(CCc1cc(CO)cc(CO)c1)NS2(=O)=O (centres unmarked) [Example 79d, 2H-1,2,4-Benzothiadiazine-7-sulfonamide, 3-[2-[3,5-bis(hydroxymethyl)phenyl]ethyl]-6-chloro-3,4-dihydro-, 1,1-dioxide]	218 °C		
NS(=O)(=O)c1cc2c(cc1Cl)NCN(CC1CO1)S2(=O)=O (centres unmarked) [Example 81, 2H-1,2,4-benzothiadiazine-7-sulfonamide, 6-chloro-3,4-dihydro-2-(oxiranylmethyl)-, 1,1-dioxide]	192 to 197 °C		

Source: patent US7595313B2, “Nitric oxide donating diuretic compounds, compositions and methods of use” (NicOx, S.A., priority 2005, dated 2009)
